Measurements published in US5081023A, “Antibiotic L53-18A and process for preparation thereof” (Toyo Yozo Company, Ltd., priority 1989, dated 1992).
Values after ≈ are worked out from the molar mass of the structure shown. Like-named read-outs stand apart in the source and are kept apart here.

Tests used:
[1] = system: Streptococcus pyogenes N.Y.5; assay: Antimicrobial activity (MIC), Table 1; type: cell-based; conditions: read-out: Minimum growth inhibitory concentration
[2] = system: Streptococcus agalactiae 1020; assay: Antimicrobial activity (MIC), Table 1; type: cell-based; conditions: read-out: Minimum growth inhibitory concentration
Solubility = type: physicochemical
[3] = system: Staphylococcus epidermidis ATCC 27626; assay: Antimicrobial activity (MIC), Table 1; type: cell-based; conditions: ATCC27626, read-out: Minimum growth inhibitory concentration
[4] = system: Pseudomonas aeruginosa IAM 1095; assay: Antimicrobial activity (MIC), Table 1; type: cell-based; conditions: IAM1095, read-out: Minimum growth inhibitory concentration
Sarcina lutea ATCC 9341 = assay: Antimicrobial activity (MIC), Table 1; type: cell-based; conditions: Micrococcus luteus, ATCC9341, read-out: Minimum growth inhibitory concentration
[5] = Distinction of acidic or basic; type: physicochemical
[6] = system: Klebsiella pneumoniae NCTC 9632; assay: Antimicrobial activity (MIC), Table 1; type: cell-based; conditions: NCTC9632, read-out: Minimum growth inhibitory concentration
Gram-positive bacteria = assay: Antibacterial activity; type: cell-based
mice = assay: Acute toxicity; type: in vivo; conditions: ip, 10 per group, mice surviving at this dose
Protocol: (16) Acute toxicity: 300 mg/kg (ip) with surviving mice (10 mice per one group).

[7] = system: Bacillus subtilis ATCC 6633; assay: Antimicrobial activity (MIC), Table 1; type: cell-based; conditions: ATCC6633, read-out: Minimum growth inhibitory concentration
[8] = system: Escherichia coli NIHJ JC-2; assay: Antimicrobial activity (MIC), Table 1; type: cell-based; conditions: NIHJJC2, read-out: Minimum growth inhibitory concentration
[9] = system: Staphylococcus aureus FDA 209P JC-1; assay: Antimicrobial activity (MIC), Table 1; type: cell-based; conditions: FDA209P, read-out: Minimum growth inhibitory concentration
[10] = system: Saccharopolyspora sp. L53-18; assay: Resistance to antibiotic (MIC), Table 3; type: cell-based
Text: [according to J. Antibiot. 32: 180-186 (1976)]

[11] = system: Saccharopolyspora sp. L53-18; assay: Resistance to lysozyme; type: cell-based; conditions: producing strain L53-18
Text: (8) Resistance to lysozyme: sensitive [Inter. J. System. Bacteriol. 27: 176-178 (1977)]

[12] = resistance of producing strain L53-18 to antibiotics, read-out: MIC
[13] = resistance of producing strain L53-18 to antibiotics

For `CC[C@H]1OC(=O)[C@H](C)[C@@H](O[C@H]2C[C@@](C)(OC)[C@@H](O)[C@H](C)O2)[C@H](C)[C@@H](O[C@@H]2O[C@H](C)C[C@H](N(C)C)[C@H]2O)[C@](C)(O)C[C@@H](C)C2=C(C)C(=O)[C@]1(C)O2` [Antibiotic L53-18A], the MIC [1] was under 0.05 µg/mL, the MIC [2] was under 0.05 µg/mL and the Solubility (Solubility) was “Soluble in methanol, ethanol, acetone, ethyl acetate, chloroform, benzene and acidic water”. For the same compound, the MIC [3] was 0.2 µg/mL (≈ 0.28 µM), the MIC [4] was over 100 µg/mL and the MIC (Sarcina lutea ATCC 9341) was under 0.05 µg/mL. The “Distinction of acidic or basic” value [5] was “basic”, the MIC [6] was over 100 µg/mL and the “antibacterial activity to Gram-positive bacteria” value (Gram-positive bacteria) was “shows antibacterial activity to Gram-positive bacteria”. For the same compound, the “Acute toxicity (dose with surviving mice)” value (mice) was 300 mg/kg, the MIC [7] was under 0.05 µg/mL and the MIC [8] was over 100 µg/mL. The MIC [9] was 0.2 µg/mL (≈ 0.28 µM).

Work on `NC[C@H]1O[C@H](O[C@H]2[C@H](O)[C@@H](O[C@H]3O[C@H](CO)[C@@H](O)[C@H](N)[C@H]3O)[C@H](N)C[C@@H]2N)[C@H](O)[C@@H](O)[C@@H]1O` [Kanamycin] yielded an MIC [10] of 63 µg/mL (≈ 130 µM).

Compound `CCCC(=O)O[C@H]1[C@H](C)O[C@@H](O[C@H]2[C@H](N(C)C)[C@@H](O)[C@H](O[C@H]3[C@@H](CC=O)C[C@@H](C)[C@@H](O)/C=C/C=C/C[C@@H](C)OC(=O)C[C@@H](O)[C@@H]3OC)O[C@@H]2C)C[C@@]1(C)O` [Leucomycin A5] has an MIC [10, 12] of over 1000 µg/mL.

Work on `NC[C@@H]1O[C@H](O[C@H]2[C@@H](O)[C@H](O[C@@H]3[C@@H](O)[C@H](N)C[C@H](N)[C@H]3O[C@H]3O[C@H](CO)[C@@H](O)[C@H](O)[C@H]3N)O[C@@H]2CO)[C@H](N)[C@@H](O)[C@@H]1O` [Paromomycin] yielded an MIC [10, 12] of 31 µg/mL (≈ 50.4 µM).

Work on `CO[C@H]1/C=C/O[C@@]2(C)Oc3c(C)c(O)c4c(O)c(c(/C=N/N5CCN(C)CC5)c(O)c4c3C2=O)NC(=O)/C(C)=C\C=C\[C@H](C)[C@H](O)[C@@H](C)[C@@H](O)[C@@H](C)[C@H](OC(C)=O)[C@@H]1C` [Rifampicin] yielded an MIC [10, 12] of under 16 µg/mL.

In the case of `CN[C@@H]1[C@H](O)[C@H](NC)[C@H]2O[C@@]3(O)C(=O)C[C@@H](C)O[C@H]3O[C@@H]2[C@H]1O` [Spectinomycin], the MIC [10, 12] is reported as over 1000 µg/mL.

In the case of `[H]/N=C(/N)N[C@H]1[C@H](O)[C@@H](O)[C@H](O[C@@H]2O[C@@H](C)[C@](O)(C=O)[C@H]2O[C@@H]2O[C@@H](CO)[C@H](O)[C@@H](O)[C@@H]2NC)[C@@H](N/C(N)=N\[H])[C@@H]1O` [Streptomycin], the MIC [10, 12] is reported as 31 µg/mL (≈ 53.3 µM).

Work on Gentamicin yielded an MIC [10, 13] of 16 µg/mL.

Compound Neomycin has an MIC [10, 13] of 63 µg/mL.

For lysozyme, the Resistance to lysozyme [11] was “sensitive”.
